In patent US12528944B2, “Live-cell fluorescent mitochondrial stains” (HOWARD HUGHES MEDICAL INSTITUTE, priority 2022, dated 2026):
Entries after “also recorded” stand apart in the source; their conditions may differ.

Experiments:
[1] = Quantum yield determination (absolute, integrating sphere)
Experimental: Unless otherwise noted, Φf values were measured in PBS, pH 7.4. This instrument uses an integrating sphere to determine photons absorbed and emitted by a sample. Measurements were carried out using dilute samples (A<0.1) and self-absorption corrections^24 were performed using the instrument software. Reported values are averages (n=3).

[2] = UV-vis and fluorescence spectroscopy; conditions: for absorptivity, quantum yield and brightness in nonpolar conditions relative to PBS: SDS micelles and dioxane:water mixtures
Experimental: Spectroscopy was performed using 1-cm path length, 3.5-mL quartz cuvettes from Starna Cells. All measurements were taken at ambient temperature (22±2° C.). […] Fluorescence spectra were recorded on a Cary Eclipse fluorometer (Varian). Unless otherwise noted, maximum absorption wavelength (λabs), extinction coefficient (ε), and maximum emission wavelength (λem) were measured in PBS, pH 7.4. Reported values and spectra are averages (n=3).

[3] = Photochemistry under 405 nm illumination, analysis by LC-MS; type: physicochemical; conditions: PBS, 5 and 20 min
Experimental: To investigate photochemistry, solutions of 8, 11, and 13-15 (100 μM) were prepared in PBS and placed in a glass vial. An aliquot of this freshly prepared solution was immediately analyzed by LC-MS (−hv). The solution was then irradiated with 405 nm light from an LED array (LOCTITE CL20 flood array) for 5 min (t=5 min) and 20 min (t=20 min) followed by analysis using LC-MS. Photochemical adducts 17/17i and 18/18i were purified and the spectral properties of these isomeric mixtures were analyzed. These compounds were then treated with 1 or 2 equivalents of NaOH(aq) to hydrolyze the iminium bond; the resulting oxidized coumarin products S1/S1i and S2/S2i were observed by LC-MS.

[4] = Chemical stability by fluorescence in different buffers and media; type: physicochemical; conditions: 1 μM; citrate pH 5, PBS pH 7.4, Tris pH 9, DMEM, DMEM+10% FBS
Experimental: Measurement of chemical stability by fluorescence (FIG. 5A-5B). To compare the chemical stability of 15 in different conditions using changes in fluorescence, samples (1 μM) of 15 were prepared in the following solutions: citrate buffer, pH 5; PBS, pH 7.4; Tris buffer, pH 9; DMEM; and DMEM containing 10% v/v FBS (DMEM+FBS). 200 μL of each solution (n=3) was placed in a black, clear-bottom 96-well microplate (Nunc, 165305) and sealed with an adhesive film. The fluorescence of the DAB dye was monitored using 445 nm excitation and 510-550 nm emission (integrated signal) reading from the bottom of the plate using a TECAN Spark microplate reader controlled with SparkControl software.

[5] = system: mitochondria of live U2OS cells; experiment: Cellular retention after dye-free media exchange washes; type: cell-based; conditions: 1 h, 37° C., 0, 1 or 2 dye-free media washes
Experimental: To compare cellular retention of 15, 20, and MitoView 405, U2OS cells were incubated with 15 (200 nM), 20 (200 nM) or MitoView 405 (100 nM; Biotium) for 1 h at 37° C.

U2OS cells = experiment: In-cell photostability experiments; type: cell-based; conditions: 405 nm laser, 15 photobleaching cycles
Experimental: In-cell photostability experiments (FIG. 9C). U2OS cells were incubated with 15 (200 nM), 20 (200 nM) or MitoView 405 (100 nM; Biotium) for 1 h at 37° C. and imaged live without washing using a Leica SP8 Falcon confocal microscope with enabled adaptive focus control (AFC), an HC PL-APO 86×/1.20 water objective, and a 405 nm diode laser at 58.9% laser power. […] These images were processed using FIJI.^25

[6] = Chemical stability (iminium hydrolysis) by LC-MS; type: physicochemical; conditions: 25 μM; citrate pH 5, PBS pH 7.4, Tris pH 9; sampled every 30 min over 12 h
Experimental: Measurement of chemical stability and photostability by tandem high-pressure liquid chromatography-mass spectrometry (LC-MS; FIG. 3A-D, FIG. 4A-4D, FIG. 6, FIG. 10). To examine the chemical stability and photostability of the DAB dyes, samples were assessed by tandem high-pressure liquid chromatography-mass spectrometry (LC-MS) using an Agilent 1200 LC-MS system equipped with an autosampler, diode array detector, and mass spectrometry detector (ESI; positive ion mode) using a 4.6×150 mm Gemini NX-C18 column with a 5-95% or 5-50% gradient of CH3CN in H2O containing constant 0.1% (v/v) TFA. Chromatograms were monitored using absorbance at 254 nm or 400 nm. To investigate chemical hydrolysis, solutions of 8, 11, and 13-15 (100 μM) were prepared in PBS, pH 7.4. An aliquot of this freshly prepared solution was immediately analyzed by LC-MS (t=0). The solution was then incubated at ambient temperature protected from light for 48 h and analyzed again by LC-MS (t=48 h). Standard samples of coumarins 6, 10, and 12 (100 μM, PBS) were analyzed in the same manner. To compare the stability of compounds 15 and 20 under different conditions, solutions of each dye (25 μM) in citrate buffer, pH 5, PBS, pH 7.4, or Tris buffer, pH 9 were prepared in an autosampler vial and the sample was analyzed using the LC-MS instrumentation every 30 min. […]

CCN(CC)c1ccc2c(C)cc(=O)oc2c1 [Compound 6, 7-diethylamino-4-methylcoumarin, reference compound]
fluorescence quantum yield (Φf) ([1]; PBS, pH 7.4): 0.06

CCN(CC)c1ccc2c(C)cc(N(CC)CC)[o+]c2c1.O=C([O-])C(F)(F)F [Compound 8, 2,7-Bis(diethylamino)-4-methylbenzopyrylium trifluoroacetate]
fluorescence quantum yield (Φf) ([1]; PBS, pH 7.4): 0.16 | Stokes shift ([2]; PBS, pH 7.4): 65 nm | bathochromic shift in λabs relative to parent coumarin ([2]; PBS, pH 7.4): 45 nm | shift in λem relative to parent coumarin ([2]; PBS, pH 7.4): 26 nm

Cc1cc(N2CCC2)[o+]c2cc(N3CCC3)ccc12.O=C([O-])C(F)(F)F [Compound 11, 2,7-Di(azetidin-1-yl) 4-methylbenzopyrylium trifluoroacetate]
fluorescence quantum yield (Φf) ([1]; PBS, pH 7.4): 0.79 | Stokes shift ([2]; PBS, pH 7.4): 99 nm | bathochromic shift in λabs relative to parent coumarin ([2]; PBS, pH 7.4): 48 nm | shift in λem relative to parent coumarin ([2]; PBS, pH 7.4): 34 nm

CC[N+](CC)=c1cc(C)c2cc3c4c(c2o1)CCCN4CCC3.O=C([O-])C(F)(F)F [Compound 13, N-ethyl-N-(9-methyl-2,3,6,7-tetrahydro-1H,5H,11H-pyrano[2,3-f]pyrido[3,2,1-ij]quinolin-11-ylidene)ethanaminium trifluoroacetate]
Stokes shift ([2]; PBS, pH 7.4): 68 nm | maximum fluorescence emission wavelength (λem) ([2]; PBS, pH 7.4): 513 nm

Cc1cc(=[N+]2CCCCC2)oc2c3c4c(cc12)CCCN4CCC3.O=C([O-])C(F)(F)F [Compound 15, 1-(9-methyl-2,3,6,7-tetrahydro-1H,5H,11H-pyrano[2,3-f]pyrido[3,2,1-ij]quinolin-11-ylidene)piperidin-1-ium trifluoroacetate]
photochemical oxidation [3]: no photochemically driven oxidation was detected on the piperidine ring | rate of hydrolysis in different buffer conditions [4]: modestly higher rates of hydrolysis was observed at elevated pH or in cell culture media containing serum | cellular signal upon media exchange (retention) ([5]; trifluoroacetate): rapidly decreased upon media exchange; also recorded: signal rapidly decreased | absorptivity, quantum yield and brightness in nonpolar conditions relative to PBS [2]: higher absorptivity and fluorescence quantum yield

Cc1cc(=[N+]2CCC(CCCC3CC[N+](=c4cc(C)c5cc6c7c(c5o4)CCCN7CCC6)CC3)CC2)oc2c3c4c(cc12)CCCN4CCC3.O=C([O-])C(F)(F)F.O=C([O-])C(F)(F)F (stereo not shown) [Compound 20, 4,4′-(propane-1,3-diyl)bis(1-(9-methyl-2,3,6,7-tetrahydro-1H,5H,11H-pyrano[2,3-f]pyrido[3,2,1-ij]quinolin-11-ylidene)piperidin-1-ium) trifluoroacetate]
cellular signal upon media exchange (retention) [5]: retained | resistance to photobleaching in live cells (U2OS cells): best overall photostability | rate of hydrolysis relative to 15 [6]: slightly higher rate of hydrolysis | fluorescence quantum yield (Φf) ([1]; PBS containing 0.1% w/v SDS): 0.83 | fluorescence quantum yield (Φf) ([1]; PBS, pH 7.4): 0.45 | extinction coefficient at λabs (ε) ([2]; PBS containing 0.1% w/v SDS): 78,900 M^−1 cm^−1 | maximum absorption wavelength (λabs) ([2]; PBS, pH 7.4): 447 nm | maximum fluorescence emission wavelength (λem) ([2]; PBS, pH 7.4): 524 nm | absorptivity, quantum yield and brightness in nonpolar conditions relative to PBS [2]: brighter in dioxane:water mixtures | extinction coefficient at λabs (ε) ([2]; aqueous solution (PBS, pH 7.4)): 45,200 M^−1 cm^−1
